Marks after values point to notes of the source that are not given here.
Columns and labels:
[1] = molecular target: T1, AhR (Homo sapiens, UniProt P35869); test: AhR agonism luciferase reporter gene assay in transfected HepG2 cells; format: cell-based; conditions: 16 h, ratio of treatment group to blank
T1 construct: expressed in transfected cells; host or cells: HepG2
T1 sequence (P35869 11-848): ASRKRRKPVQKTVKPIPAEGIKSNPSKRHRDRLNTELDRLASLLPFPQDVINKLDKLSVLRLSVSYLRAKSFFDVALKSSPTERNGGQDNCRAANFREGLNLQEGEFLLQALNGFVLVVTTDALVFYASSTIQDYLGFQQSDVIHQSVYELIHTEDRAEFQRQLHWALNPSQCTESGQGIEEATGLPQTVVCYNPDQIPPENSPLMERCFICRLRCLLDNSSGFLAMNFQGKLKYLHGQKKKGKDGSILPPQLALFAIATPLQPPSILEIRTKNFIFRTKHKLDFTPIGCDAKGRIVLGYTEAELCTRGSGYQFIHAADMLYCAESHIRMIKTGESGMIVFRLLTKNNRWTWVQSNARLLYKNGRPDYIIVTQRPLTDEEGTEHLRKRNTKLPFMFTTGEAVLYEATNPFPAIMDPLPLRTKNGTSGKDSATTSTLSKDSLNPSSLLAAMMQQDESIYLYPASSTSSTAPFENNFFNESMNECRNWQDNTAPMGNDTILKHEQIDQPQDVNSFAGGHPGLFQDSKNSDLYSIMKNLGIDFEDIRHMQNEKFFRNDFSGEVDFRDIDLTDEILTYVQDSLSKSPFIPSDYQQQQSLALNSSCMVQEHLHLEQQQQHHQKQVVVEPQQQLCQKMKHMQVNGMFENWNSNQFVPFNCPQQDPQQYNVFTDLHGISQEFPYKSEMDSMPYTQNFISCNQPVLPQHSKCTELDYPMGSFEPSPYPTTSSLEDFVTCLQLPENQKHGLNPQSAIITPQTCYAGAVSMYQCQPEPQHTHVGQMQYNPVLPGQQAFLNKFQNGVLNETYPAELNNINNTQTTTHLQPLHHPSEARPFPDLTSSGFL
Method: When the cell confluence reached 80%, the culture medium was replaced with a fresh one, and the transfection working solution was added for transfection overnight. The formula of the working solution is as follows: 1 mL of Opti-MEM+7.5 μg of pCMV-AHR+7.5 μg of pTK-3×DRE-Luc+30 μL of lipo6000. • (2) Cell plating: The transfected cells were digested, prepared into a cell suspension at a concentration of 3×10^5 cells/mL, and then plated on a 96-well plate at 100 µL/well for adherent culture overnight. • (3) Formulation
The prepared drug-containing culture media and a blank culture medium were added to the 96-well plate described above at 100 μL/well.

[2] = Ointment diffusion test, ex vivo rabbit skin; format: in vitro ADME; conditions: ointments: 2# 1.2 wt %, 6# 1.2 wt %, benvitimod 1.0 wt %, 32° C.
Method: (§1) Test compounds: compound 2 #ointment, 1.2 wt %; compound 6 #ointment, 1.2 wt %; benvitimod ointment, 1.0 wt %;
• (1) Preparation of ex vivo rabbit skin • (2) Preparation of receiving liquid: 100 mL of polyethylene glycol 400 solution was brought to a final volume of 250 mL with normal saline. The mixture was mixed well and stored at 4° C. Before each permeation in the receiving compartment, the system was preheated to 32° C. • (3) In vitro transdermal test: A drug transdermal diffusion apparatus was used to fix the processed rabbit skin between the supply and receiving compartments, with the stratum corneum facing the supply compartment. A constant temperature water bath circulation at 32° C. was maintained. The system was equilibrated for 30 min. Upon each replacement of the receiving liquid, the air at the lower layer was exhausted, and the liquid droplets on the skin surface were removed with paper. 0.5 g of the ointment was evenly smeared in the supply compartment. The system was stirred with a magnetic stirring at a rotation speed of 600 r/min. At 0.5, 1, 2, 3, 4, 5, 7, 9, 12, and 24 h, 1 mL of sample liquid was taken out from the receiving compartment and transferred into a liquid phase vial, and simultaneously, an equal amount of fresh receiving liquid at the same temperature was added. The liquid phase detection was conducted to calculate the drug permeation rate.

[3] = test system: IL4; test: Regulatory effect on cytokine secretion in PHA-stimulated PBMCs: IL4; format: cell-based; conditions: for IL4: PBMCs, 15 μg/mL PHA, 24 h (PHA group 9.42)
Method: (§2) • (1) Cells: […]; • (2) Cell plating and treatment: After the PBMCs were taken out from the liquid nitrogen tank and thawed, 80 μL of culture medium was added to a 96-well plate, and the cells were added at 200,000 cells/well. The culture media containing 2 μM or 0.2 μM compound 2 #, compound 6 #, or reference 1 # were added to the 96-well plate at 80 μL, at a final drug concentration of 1 μM or 0.1 μM per well. The plate was let stand for 1 h for pretreatment. After the pretreatment, the drug-containing medium was discarded, and 1 μM or 0.1 μM solution containing 15 μg/mL PHA (phytohemaggluyinin) was added at 80 μL/well. After 24 h of stimulation, the content of cytokines in the culture medium was detected. • Blank control group: The cells were treated with a normal culture medium with no drugs; • PHA group: A culture medium containing 15 μg/mL PHA but no compounds of the present disclosure was added at 80 μL/well.

[4] = test system: atopic dermatitis; test: DNFB-induced atopic dermatitis mouse model (AD Score); format: in vivo, BALB/C mice; parameters: scale not given here; conditions: DNFB mice
Method: 56 clean-grade BALB/C mice aged 6-8 weeks were subjected to 5 days of adaptive feeding and then randomized into 7 groups of 8 mice each: • A. Blank control group • B. Modeling+solvent group • C. Modeling+blank matrix group • D. Modeling+positive drug mometasone furoate group • E. Modeling+1 wt % of benvitimod group • F. […] The animal experiments were conducted in accordance with the Experimental Animal Feeding, Management and Use Guidelines of China Pharmaceutical University and in compliance with animal study ethics and regulations. As shown in the above procedures, the solvent control or DNFB was given in the morning for modeling; from day 5, the test compound ointment was administered once every afternoon at 50 mg/dose evenly on the skin surface. The specific administration method is as shown above; Specific procedures: […] Severity of atopic dermatitis was scored using the AD Score criteria The severity of the appearance of dermatitis was evaluated based on 4 indicators: A. erythema/bleeding; B. dryness; C. effusion/crusting; D. edema.

[5] = test system: TNFa; test: Regulatory effect on cytokine secretion in PHA-stimulated PBMCs: TNFa; format: cell-based; conditions: for TNFa: PBMCs, 15 μg/mL PHA, 24 h (PHA group 3649.21)
Method: as §2

[6] = Drug permeation rate test, in vitro diffusion through semipermeable membrane; format: in vitro ADME; conditions: ointments: 2# 1.2 wt %, 6# 1.2 wt %, benvitimod 1.0 wt %, 32° C.
Method: as §1
[drawing 90] • (1) Preparation of semipermeable membrane: The semipermeable membrane, which had been prepared in advance, was taken out from the refrigerator; • (2) Preparation of receiving liquid: 100 mL of polyethylene glycol 400 solution was brought to a final volume of 250 mL with normal saline. The mixture was mixed well and stored at 4° C. Before each permeation in the receiving compartment, the system was preheated to 32° C.; • (3) In vitro diffusion test: A drug transdermal diffusion apparatus was used to fix the processed semipermeable membrane between the supply and receiving compartments. A constant temperature water bath circulation at 32° C. was maintained. The system was equilibrated for 30 min. Upon each replacement of the receiving liquid, the air at the lower layer was exhausted. About 0.5 g of the ointment was evenly smeared in the supply compartment. The system was stirred with a magnetic stirring at a rotation speed of 600 r/min. At 0.5, 1, 2, 4, 6, and 24 h, 1 mL of sample liquid was taken out from the receiving compartment, and simultaneously, an equal amount of fresh receiving liquid at the same temperature was added;
The sampling time points were 0.5, 1, 2, 4, 6, and 24 h, and 1 mL of sample was directly transferred into a liquid phase vial. Simultaneously, an equal amount of fresh receiving liquid at the same temperature was added. The liquid phase detection was conducted to calculate the drug permeation rate.

AhR receptor agonistic fold ([1]; drug concentration 0.1 μM): 6.1 ± 0.6 fold
AhR receptor agonistic fold ([1]; drug concentration 1 μM): 37.9 ± 6.9 fold
24-hour drug permeation rate (rank order) [2]: benvitimod >2 #>6 #
24-hour drug permeation rate (rank order) [6]: benvitimod >2 #>6 #
SMILES: Oc1cc(/C=C/c2ccc(F)cc2)cc(O)c1C1CCCC1 [Compound 2, (E)-2-cyclopentyl-5-(4-fluorostyryl)-1,3-benzenediol]
IL4 ([3]; 0.1 μM): 5.19 pg/mL
inhibitory effect on IL4 relative to reference 1# (benvitimod) ([3]; 1 μM): 2 folds
IL4 ([3]; 1 μM): 4.30 pg/mL
Back AD score ([4]; day 0, before ointment treatment (from day 5)): 0.00 ± 0.00
Back AD score ([4]; day 4, before ointment treatment (from day 5)): 3.19 ± 0.75
Back AD score ([4]; day 6, ointment 50 mg once daily from day 5 (1.2 wt % 2#/6#, 1 wt % benvitimod)): 5.63 ± 1.96
Back AD score ([4]; day 8, ointment 50 mg once daily from day 5 (1.2 wt % 2#/6#, 1 wt % benvitimod)): 6.13 ± 1.96**^aab
Back AD score ([4]; day 10, ointment 50 mg once daily from day 5 (1.2 wt % 2#/6#, 1 wt % benvitimod)): 5.31 ± 1.87**^aab
TNFa ([5]; 0.1 μM): 1353.72 pg/mL
inhibitory effect on TNFa relative to reference 1# (benvitimod) ([5]; 1 μM): 2 folds
TNFa ([5]; 1 μM): 941.41 pg/mL

— US20250382250A1, “STILBENE DERIVATIVE AS AHR AGONIST AND USE THEREOF” (NANJING GRITPHARMACO., LTD., priority 2022, published 2025)
